# Measurements from article PMC11953117 (Cancer Chemotherapy and Pharmacology, 2025).
# Test: Safety endpoints (treatment-emergent AEs, CTCAE v4) in three phase 1 studies
# Type: in vivo, human
# Text: AEs were collected throughout the trials, graded using Common Terminology Criteria for Adverse Events v4. Treatment-emergent AEs (TEAEs), defined as any AE that started after the first dose of study treatment or that started prior to dosing and worsened during on treatment period (by investigator report of a change in intensity) following exposure to treatment, were included in the analysis.
# The rash AE endpoint pooled the following Medical Dictionary for Regulatory Activities (MedDRA) preferred terms: rash maculo-papular, rash macular, rash, rash generalized, rash papular and rash pruritic, while the diarrhea AE and hyperglycemia AE included the MedDRA preferred terms diarrhea and hyperglycemia, respectively.
# The grade selection for diarrhea and rash was based on clinical relevance in terms of limiting quality of life; for hyperglycemia the grade was higher considering this is a pharmacodynamic effect of AKT inhibition and often seen as asymptomatic change of laboratory value only.
# [1] = Continuous BID, 480 mg, N=6, pooled studies
# [2] = Continuous BID, 600 mg, N=2, pooled studies
# [3] = Total, all doses and schedules, N=277
# [4] = [2/5] BID, 640 mg, N=14, pooled studies
# [5] = [2/5] BID, 800 mg, N=14, pooled studies
# [6] = [4/3] BID, 360 mg, N=8, pooled studies
# [7] = [4/3] BID, 480 mg, N=163, pooled studies
# [8] = [4/3] BID, 640 mg, N=10, pooled studies
# [9] = in total, across all doses and schedules
smiles,measurement,setting,value
"NC1(C(=O)N[C@@H](CCO)c2ccc(Cl)cc2)CCN(c2ncnc3[nH]ccc23)CC1 [capivasertib, 4-amino-N-[(1S)-1-(4-chlorophenyl)-3-hydroxypropyl]-1-(7H-pyrrolo[2,3-d]pyrimidin– 4-yl)piperidine-4-carboxamide]",Rash AE grade ≥ 2,[1],3 (50.0) n (%)
same,SAE,[1],6 (100) n (%)
same,AE grade ≥ 1,[2],2 (100) n (%)
same,AE grade ≥ 3,[2],2 (100) n (%)
same,AEDD (AE leading to dose discontinuation),[2],2 (100) n (%)
same,AEDM (AE leading to dose modification),[2],1 (50.0) n (%)
same,Diarrhea AE grade ≥ 2,[2],1 (50.0) n (%)
same,Hyperglycemia AE grade ≥ 3,[2],0 n (%)
same,Increased BG > 13.9 mmol/L,[2],1 (50.0) n (%)
same,Rash AE grade ≥ 2,[2],2 (100) n (%)
same,SAE,[2],2 (100) n (%)
same,AE grade ≥ 1,[3],274 (98.9) n (%)
same,AE grade ≥ 3,[3],182 (65.7) n (%)
same,AEDD (AE leading to dose discontinuation),[3],51 (18.4) n (%)
same,AEDM (AE leading to dose modification),[3],139 (50.2) n (%)
same,Diarrhea AE grade ≥ 2,[3],102 (36.8) n (%)
same,Hyperglycemia AE grade ≥ 3,[3],72 (26.0) n (%)
same,Increased BG > 13.9 mmol/L,[3],126 (45.5) n (%)
same,Rash AE grade ≥ 2,[3],73 (26.4) n (%)
same,SAE,[3],107 (38.6) n (%)
same,AE grade ≥ 1,[4],14 (100) n (%)
same,AE grade ≥ 3,[4],11 (78.6) n (%)
same,AEDD (AE leading to dose discontinuation),[4],2 (14.3) n (%)
same,AEDM (AE leading to dose modification),[4],2 (14.3) n (%)
same,Diarrhea AE grade ≥ 2,[4],3 (21.4) n (%)
same,Hyperglycemia AE grade ≥ 3,[4],7 (50.0) n (%)
same,Increased BG > 13.9 mmol/L,[4],8 (57.1) n (%)
same,Rash AE grade ≥ 2,[4],2 (14.3) n (%)
same,SAE,[4],7 (50.0) n (%)
same,AE grade ≥ 1,[5],14 (100) n (%)
same,AE grade ≥ 3,[5],8 (57.1) n (%)
same,AEDD (AE leading to dose discontinuation),[5],1 (7.1) n (%)
same,AEDM (AE leading to dose modification),[5],8 (57.1) n (%)
same,Diarrhea AE grade ≥ 2,[5],3 (21.4) n (%)
same,Hyperglycemia AE grade ≥ 3,[5],5 (35.7) n (%)
same,Increased BG > 13.9 mmol/L,[5],9 (64.3) n (%)
same,Rash AE grade ≥ 2,[5],2 (14.3) n (%)
same,SAE,[5],5 (35.7) n (%)
same,AE grade ≥ 1,[6],6 (75.0) n (%)
same,AE grade ≥ 3,[6],3 (37.5) n (%)
same,AEDD (AE leading to dose discontinuation),[6],0 n (%)
same,AEDM (AE leading to dose modification),[6],3 (37.5) n (%)
same,Diarrhea AE grade ≥ 2,[6],4 (50.0) n (%)
same,Hyperglycemia AE grade ≥ 3,[6],1 (12.5) n (%)
same,Increased BG > 13.9 mmol/L,[6],3 (37.5) n (%)
same,Rash AE grade ≥ 2,[6],1 (12.5) n (%)
same,SAE,[6],0 n (%)
same,AE grade ≥ 1,[7],163 (100) n (%)
same,AE grade ≥ 3,[7],114 (69.9) n (%)
same,AEDD (AE leading to dose discontinuation),[7],27 (16.6) n (%)
same,AEDM (AE leading to dose modification),[7],90 (55.2) n (%)
same,Diarrhea AE grade ≥ 2,[7],64 (39.3) n (%)
same,Hyperglycemia AE grade ≥ 3,[7],45 (27.6) n (%)
same,Increased BG > 13.9 mmol/L,[7],82 (50.3) n (%)
same,Rash AE grade ≥ 2,[7],45 (27.6) n (%)
same,SAE,[7],68 (41.7) n (%)
same,AE grade ≥ 1,[8],10 (100) n (%)
same,AE grade ≥ 3,[8],7 (70.0) n (%)
same,AEDD (AE leading to dose discontinuation),[8],4 (40) n (%)
same,AEDM (AE leading to dose modification),[8],2 (20.0) n (%)
same,Diarrhea AE grade ≥ 2,[8],3 (30.0) n (%)
same,Hyperglycemia AE grade ≥ 3,[8],4 (40.0) n (%)
same,Increased BG > 13.9 mmol/L,[8],7 (70.0) n (%)
same,Rash AE grade ≥ 2,[8],0 n (%)
same,SAE,[8],6 (60.0) n (%)
same,patients with AE grade ≥ 1,[9],98.9%
same,patients with AEs grade ≥ 3,[9],65.7%
same,patients with AEs leading to dose discontinuation,[9],18.4%
same,patients with AEs leading to dose modification,[9],50.2%
same,patients with SAEs,[9],38.6%
same,patients with diarrhea AE grade ≥ 2,[9],36.8%
same,patients with hyperglycemia grade ≥ 3,[9],26.0%
same,patients with increased blood glucose > 13.9 mmol/L,[9],45.5%
same,patients with rash AE grade ≥ 2,[9],26.4%
